# Measured values: US9353090B2, “Heterocyclic carboxylic acids as activators of soluble guanylate cyclase” (Boehringer Ingelheim International GmbH, priority 2014, dated 2016)
# Tests used:
# [1] = molecular target: human soluble guanylate cyclase alpha 1 and beta 1 subunits (sGC) (Homo sapiens (Human), UniProt Q02108+Q02153); assay: sGC cellular activator assay (cGMP, HTRF), in the presence and absence of 50% human serum; type: cell-based; settings: CHO cells stably expressing human sGC alpha 1/beta 1, preincubated with 40 microM ODQ; cGMP by HTRF; Table 2 does not state whether with or without 50% human serum
# In short: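 Heme-oxidized conditions: ODQ (40 microM, 1 h) pretreatment of CHO cells stably expressing human α1/β1 sGC, in buffer containing 0.1% BSA and IBMX.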
# [2] = Human liver microsome (HLM) metabolic stability assay; type: in vitro ADME; settings: human liver microsomes
# In short: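 Compound at 1 uM incubated with human liver microsomes at 37° C. for 60 min after NADPH addition. Aliquots quenched in cold acetonitrile at 0, 5, 15, 30 and 60 min and analysed by LC/MS/MS. t1/2 from ln(% remaining) vs time slope; CLint, CLh and % Qh derived from it (n=1).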
# physchem = settings: kinetic from dmso stock
# Method: Solubility is measured by the following method.
# 100 uL, 10 mM DMSO stock solution of each compound is prepared in a 96 well plate format. The experiment is done in single determination at 3 pH values (2.2, 4.5 and 6.8). For each pH and one reference, 40 uL of each compound is needed.
# McIlvaine pH 2.2: To 2.076 g citric acid monohydrate and 0.043 g Na2HPO4×2H2O add 100 ml deionized water
# McIlvaine pH 4.5: To 1.166 g citric acid monohydrate and 1.585 g Na2HPO4×2H2O add 100 ml deionized water
# McIlvaine pH 6.8: To 0.476 g citric acid monohydrate and 2.753 g Na2HPO4×2H2O add 100 ml deionized water
# With a suitable liquid handling device (Multipette® or a liquid handler) 390 uL of each buffer solution and 10 uL of compound is added to each well of a 96 deep well plate. The plates are covered firmly and shaken for 24 h on an over head shaker (at 54 RPM) at room temperature. The DMSO content in the final buffer is 2.5% v/v.
# After 24 h the plates are centrifuged to remove droplets on the lid before opening (for ˜5 min at 2500 RPM).
# The filtration is done under vacuum with Millipore 96 well filter plate. Filtrate is collected in a deep well plate and transferred to a suitable plate for UPLC analysis.
# The reference plate is prepared by adding 10 uL of compound to 390 uL of 50:50 acetonitrile/water in a 96 deep well plate and transferred to a suitable plate for UPLC analysis. Wells are checked visually for precipitation, any presence noted under comments in reported results.
# The samples are measured with UPLC-UV using the chromatographic method described below.
# Waters Empower®2 software is used for generating Sample Sets (according to the plate layout), Sample Set Methods and Instrument Methods.
# One Sample Set comprises the methods for three 96 well plates (one reference plate and two sample plates, and includes one Sample Set Method and one Instrument Method).
# Data Processing and Analysis
# The UV chromatograms collected at 254 nm are integrated and processed.
# It is assumed that the compound is completely dissolved in the reference solution (50:50 acetonitrile/water)
# [3] = pH 2.2, aqueous buffer, Solubility (pH 2.2)
# [4] = pH 4.5, aqueous buffer, Solubility (pH 4.5)
# [5] = pH 6.8, aqueous buffer, Solubility (pH 6.8)
# human soluble guanylate cyclase alpha 1 and beta 1 subunits (sGC), sequence (Q02108 whole entry partner): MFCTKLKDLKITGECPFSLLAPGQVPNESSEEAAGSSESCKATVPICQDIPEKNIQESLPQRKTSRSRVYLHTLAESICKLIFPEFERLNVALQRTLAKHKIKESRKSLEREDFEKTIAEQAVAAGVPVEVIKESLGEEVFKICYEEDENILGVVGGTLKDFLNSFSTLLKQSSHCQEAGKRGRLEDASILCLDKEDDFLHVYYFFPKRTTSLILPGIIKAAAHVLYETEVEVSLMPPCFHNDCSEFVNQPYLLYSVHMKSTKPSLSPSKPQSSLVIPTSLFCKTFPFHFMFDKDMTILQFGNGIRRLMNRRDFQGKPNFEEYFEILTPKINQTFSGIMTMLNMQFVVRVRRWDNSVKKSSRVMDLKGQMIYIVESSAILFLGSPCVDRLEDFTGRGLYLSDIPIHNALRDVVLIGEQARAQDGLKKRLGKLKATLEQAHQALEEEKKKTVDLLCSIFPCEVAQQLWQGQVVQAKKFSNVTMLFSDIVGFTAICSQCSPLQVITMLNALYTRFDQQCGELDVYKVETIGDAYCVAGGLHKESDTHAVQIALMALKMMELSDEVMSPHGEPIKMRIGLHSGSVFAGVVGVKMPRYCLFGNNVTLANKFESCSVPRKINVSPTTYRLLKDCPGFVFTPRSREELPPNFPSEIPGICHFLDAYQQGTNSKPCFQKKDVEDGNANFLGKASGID
# human soluble guanylate cyclase alpha 1 and beta 1 subunits (sGC), sequence (Q02153 whole entry): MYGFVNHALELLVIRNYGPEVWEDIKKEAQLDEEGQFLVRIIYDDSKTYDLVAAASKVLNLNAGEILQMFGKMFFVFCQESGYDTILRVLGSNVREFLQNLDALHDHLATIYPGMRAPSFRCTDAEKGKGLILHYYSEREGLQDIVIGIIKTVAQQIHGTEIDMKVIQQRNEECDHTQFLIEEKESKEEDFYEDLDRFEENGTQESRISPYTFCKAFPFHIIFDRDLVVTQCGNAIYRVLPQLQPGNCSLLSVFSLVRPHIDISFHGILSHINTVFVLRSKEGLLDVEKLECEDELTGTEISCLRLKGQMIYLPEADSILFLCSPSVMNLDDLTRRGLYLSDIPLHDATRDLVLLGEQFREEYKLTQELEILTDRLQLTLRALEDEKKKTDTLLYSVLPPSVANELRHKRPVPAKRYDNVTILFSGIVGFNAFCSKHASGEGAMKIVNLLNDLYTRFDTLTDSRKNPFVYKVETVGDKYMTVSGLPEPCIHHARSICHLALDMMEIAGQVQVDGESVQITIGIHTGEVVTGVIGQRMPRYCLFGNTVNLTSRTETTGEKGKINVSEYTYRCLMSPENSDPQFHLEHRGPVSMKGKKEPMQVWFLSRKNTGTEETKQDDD
SMILES,EC50 [1] [µM],"Metabolic stability (Qh %), % hepatic blood flow [2] [%]",solubility at 24 h (physchem; [3]) [mg/mL],solubility at 24 h (physchem; [4]) [mg/mL],solubility at 24 h (physchem; [5]) [mg/mL]
Cc1cc(COc2c(C)cccc2-c2cccc(N3C[C@@H]4C[C@]4(C(=O)O)C3)n2)cc2c1CN(C1CCOC1)CC2 (some centres unmarked) [Compound 24],0.006,<24,0.11,0.098,0.069
COC[C@H]1N(c2cccc(-c3cccc(C)c3OCc3ccc4c(c3C)CCN(C3CCOCC3)C4)n2)C[C@@H]2C[C@@]21C(=O)O [Compound 46],0.018,<24,0.11,0.096,0.077
CO[C@@H]1CN(c2cccc(-c3cc(C)ccc3OCc3ccc4c(c3)CCN(C3CCOCC3)C4)n2)CC[C@@H]1C(=O)O [Compound 74],0.02,<24,0.12,0.1,0.08
CO[C@H]1CN(c2cccc(-c3cccc(C)c3OCc3cc(F)c4c(c3)CCN(C3COC3)CC4)n2)CC[C@H]1C(=O)O [Compound 274],0.004,<24,0.114,0.072,0.0655
COc1cc(COc2c(C)cccc2-c2cccc(N3C[C@@H]4C[C@]4(C(=O)O)C3)n2)cc2c1CN(C1COC1)CC2 [Compound 28],0.019,<24,0.11,0.09,0.073
CCO[C@@H]1CN(c2nc(-c3cc(C)ccc3OCc3cc(C)c4c(c3F)CCN(C3CCOCC3)C4)cs2)CC[C@@H]1C(=O)O [Compound 269],0.006,<24,0.115,0.0351,0.003
CO[C@H]1CN(c2nc(-c3cccc(C)c3OCc3cc(F)c4c(c3)CCN(C3CCOCC3)C4)cs2)CC[C@H]1C(=O)O [Compound 172],0.007,<24,0.13,0.098,0.085
CO[C@H]1CN(c2cccc(-c3cccc(C)c3OCc3ccc4c(c3C)CCN(C3CCOCC3)CC4)n2)CC[C@H]1C(=O)O [Compound 197],0.009,47,0.11,0.073,0.053
Cc1ccc(OCc2cc(C)c3c(c2C)CCN(C2CCOCC2)C3)c(-c2cccc(N3C[C@@H]4C[C@]4(C(=O)O)C3)n2)c1 [Compound 39],0.05,<24,0.1,0.091,0.045
CO[C@@H]1CN(c2nc(-c3cc(F)cc(C)c3OCc3ccc4c(c3C)CCN(C3CCOCC3)CC4)cs2)CC[C@@H]1C(=O)O [Compound 329],0.013,<24,0.103,0.0639,0.068
Cc1cccc(-c2cccc(N3C[C@@H]4C[C@]4(C(=O)O)C3)n2)c1OCc1cc(C#N)c2c(c1)CCN(C1CCOCC1)C2 [Compound 30],0.008,<24,0.11,0.084,0.062
"COC[C@H]1N(c2cccc(-c3cccc(C)c3OCc3cc(C)c4c(c3)CCN(C3CCOC3)C4)n2)C[C@@H]2C[C@@]21C(=O)O (single isomer, unassigned) [Compound 51]",0.027,28,0.11,0.094,0.074
Cc1c(COc2ccccc2-c2cccc(N3CC[C@@]4(C(=O)O)C[C@H]4C3)n2)ccc2c1CCN([C@H]1CCCOC1)C2 [Compound 11],0.004,53,0.14,0.11,0.046
COc1cc(COc2c(C)cccc2-c2cccc(N3C[C@@H]4C[C@]4(C(=O)O)C3)n2)cc2c1CN(C1CCOCC1)CC2 [Compound 27],0.016,<24,0.11,0.095,0.068
CO[C@H]1CN(c2cccc(-c3cccc(C)c3OCc3ccc4c(c3C)CCN(C3COC3)C4)n2)CC[C@H]1C(=O)O [Compound 66],0.02,33,0.1,0.084,0.064
CO[C@H]1CN(c2nc(-c3cccc(C)c3OCc3ccc4c(c3C)CCN(C3COC3)C4)cs2)CC[C@H]1C(=O)O [Compound 166],0.017,<24,0.11,0.074,0.082
CO[C@H]1CN(c2nc(-c3cccc(Cl)c3OCc3ccc4c(c3)[C@@H](C)CN(C3CCOCC3)CC4)cs2)CC[C@H]1C(=O)O [Compound 319],0.001,25,0.109,0.0602,0.0554
COC[C@H]1N(c2cccc(-c3cccc(Cl)c3OCc3cc(C)c4c(c3)CCN(C3CCOCC3)C4)n2)C[C@@H]2C[C@@]21C(=O)O [Compound 221],0.012,<24,0.155,0.144,0.132
Cc1c(COc2ccccc2-c2cccc(N3CC[C@@]4(C(=O)O)C[C@H]4C3)n2)ccc2c1CCN(C(C)c1ccccn1)C2 (some centres unmarked) [Compound 306],0.003,61,0.141,0.0971,0.0052
Cc1ccc(OCc2ccc3c(c2C)CCN(C2COC2)C3)c(-c2cccc(N3C[C@@H]4C[C@]4(C(=O)O)C3)n2)c1 [Compound 36],0.12,<24,0.1,0.084,0.048
COC[C@H]1N(c2cccc(-c3cccc(C)c3OCc3ccc4c(c3C)CCN(C3COC3)CC4)n2)C[C@@H]2C[C@@]21C(=O)O [Compound 60],0.006,<24,0.12,0.1,0.079
Cc1c(COc2ccccc2-c2csc(N3CC[C@@]4(C(=O)O)C[C@H]4C3)n2)ccc2c1CCN(C1CCOCC1)C2 [Compound 83],0.004,<24,0.12,0.047,0.013
Cc1cc(COc2c(C)cccc2-c2csc(N3C[C@H]4C[C@@]4(C(=O)O)[C@@H]3C)n2)cc2c1CN(C1COC1)CC2 [Compound 158],0.037,<24,0.094,0.053,0.065
CO[C@H]1CN(c2nc(-c3cccc(C)c3OCc3ccc4c(c3)[C@@H](C)CN(C3COC3)CC4)cs2)CC[C@H]1C(=O)O [Compound 325],0.007,33,0.131,0.0691,0.0674
COCc1cc(COc2c(C)cccc2-c2cccc(N3C[C@@H]4C[C@]4(C(=O)O)[C@H]3COC)n2)cc2c1CN(C1CCOC1)CC2 (some centres unmarked) [Compound 280],0.14,30,0.12,0.091,0.0793
